Measured values from US20050197364A1, “Amide compounds as ion channel ligands and uses thereof” (priority 2003, published 2005).

System: VR1 receptor
Assay: High throughput calcium imaging assay (Fura2, Flex Station) of VR1 antagonists, pH 5.1 stimulus
Format: cell-based
Conditions: 1 uM compound, inhibition of calcium ion influx induced by capsaicin stimulation
Experimental: Therefore the functional activity of compounds at the VR1 receptor may be determined by measuring changes in intracellular calcium levels in 293 cells expressing capsaicin-insensitive VR1 receptor variants. A dual wavelength ratiometric dye, Fura2, was used as an indicator of relative levels of calcium ions in a 96 well format using a bench top scanning fluorometer with integrated fluidics and temperature control (Flex Station, Molecular Devices).
293 cells were grown on PDL coated 96-well black-walled plates, in the presence of a DMEM medium containing 5% Penstrep, 5% Glutamax, 200 ug/mL Hygromycin, 5 μg/mL Blasticide and 10% heat inactivated FBS. Prior to assay, the cells were loaded with 5 μg/mL Fura2 in normal saline solution at 37° C. for 40 minutes. Cells were then washed with normal saline to remove the dye.
The assay consists of two stages; a pre-treatment phase followed by a treatment phase.
50 μl of a compound solution was added to the cells (Pre-treatment). Immediately following, 50 μl of the test compound in a saline solution at pH 5.1 was added. Fura2 was excited at 340 and 380 nM to indicate relative calcium concentration. Changes in wavelength measurements were made throughout the course of the experiment in 4 second intervals over a period of 3 minutes. Responses were measured as peak fluorescence ratio after test compound addition minus baseline fluorescence ratio prior to pre-treatment and were calculated using SoftMaxPro softwareData were expressed as percentage inhibition calculated using Excel as follows: [formula]

Compound | % Inhibition @ 1 uM | % Inhibition @ 1 uM (1 µM)
O=C(Nc1ccc(OC(F)(F)F)cc1)c1ccc(-c2ncccc2Cl)cc1 [Compound 276] | + (“+” compound exhibited 0-25% inhibition of calcium ion influx induced by capsaicin stimulation.) | 
COc1cc(NC(=O)c2ccc(-c3ncccc3Cl)cn2)cc(C(F)(F)F)c1 [Compound 311] | + (“+” compound exhibited 0-25% inhibition of calcium ion influx induced by capsaicin stimulation.) | 
N#Cc1cccc(NC(=O)c2ccc(-c3ncccc3Cl)cc2F)c1 [Compound 84] | + + + + (compound exhibited 75% or greater inhibition of calcium ion influx induced by capsaicin stimulation) | 
COc1cc(C(=O)Nc2nccs2)ccc1-c1ncccc1Cl [Compound 235] | + (“+” compound exhibited 0-25% inhibition of calcium ion influx induced by capsaicin stimulation.) | 
COc1ccc(NC(=O)c2ccc(-c3ncccc3Cl)cn2)cc1O [Compound 338] | + + (“+ +” compound exhibited 25-50% inhibition of calcium ion influx induced by capsaicin stimulation.) | 
N#Cc1ccccc1NC(=O)c1ccc(-c2ncccc2Cl)cc1 [Compound 11] | + (compound exhibited 0-25% inhibition of calcium ion influx induced by capsaicin stimulation) | 
O=C(Nc1ccc2cn[nH]c2c1)c1ccc(-c2ncccc2Cl)cc1 [Compound 273] | + + (“+ +” compound exhibited 25-50% inhibition of calcium ion influx induced by capsaicin stimulation.) | 
O=C(Nc1ccc2ccccc2c1)c1ccc(-c2ncccc2Cl)cc1 [Compound 54] |  | + (compound exhibited 0-25% inhibition of calcium ion influx induced by capsaicin stimulation)
O=C(Nc1ccc2cc[nH]c2c1)c1ccc(-c2ncccc2Cl)cn1 [Compound 340] | + + + + (“+ + + +” compound exhibited 75% or greater inhibition of calcium ion influx induced by capsaicin stimulation.) | 
CC(C)(NC(=O)c1ccc(-c2ncccc2Cl)cc1F)c1ccccc1 [Compound 66] | + (compound exhibited 0-25% inhibition of calcium ion influx induced by capsaicin stimulation) | 
COc1cc(C(=O)NC(C)(C)C)ccc1-c1ncccc1Cl [Compound 187] | + (compound exhibited 0-25% inhibition of calcium ion influx induced by capsaicin stimulation) | 
O=C(Nc1nccs1)c1ccc(-c2ncccc2Cl)cc1 [Compound 38] | + (compound exhibited 0-25% inhibition of calcium ion influx induced by capsaicin stimulation) | 
O=C(Nc1ccc(F)c(F)c1)c1ccc(-c2ncccc2Cl)c(F)c1 [Compound 178] | + + + (compound exhibited 50-75% inhibition of calcium ion influx induced by capsaicin stimulation) | 
COc1cc(C(=O)Nc2ccc(Cl)c(C(F)(F)F)c2)ccc1-c1ncccc1Cl [Compound 214] | + (“+” compound exhibited 0-25% inhibition of calcium ion influx induced by capsaicin stimulation.) | 
O=C(Nc1cccc(Cl)c1)c1ccc(-c2ncccc2Cl)cc1F [Compound 71] | + (compound exhibited 0-25% inhibition of calcium ion influx induced by capsaicin stimulation) | 
COc1cccc(NC(=O)c2ccc(-c3ncccc3Cl)c(F)c2)c1 [Compound 119] | + (compound exhibited 0-25% inhibition of calcium ion influx induced by capsaicin stimulation) | 
N#Cc1cccc(NC(=O)c2ccc(-c3ncccc3Cl)cc2)c1 [Compound 22] | + (compound exhibited 0-25% inhibition of calcium ion influx induced by capsaicin stimulation) | 
COc1ccc(NC(=O)c2ccc(-c3ncccc3Cl)c(OC)c2)cc1Cl [Compound 212] | + + + (“+ + +” compound exhibited 50-75% inhibition of calcium ion influx induced by capsaicin stimulation.) | 
COc1ccc(NC(=O)c2ccc(-c3ncccc3Cl)cc2)cc1Cl [Compound 17] | + (compound exhibited 0-25% inhibition of calcium ion influx induced by capsaicin stimulation) | 
O=C(Nc1ccncc1)c1ccc(-c2ncccc2Cl)cc1 [Compound 7] | + + + + (compound exhibited 75% or greater inhibition of calcium ion influx induced by capsaicin stimulation) | 
COc1cc(C(=O)Nc2ccc(OC)c(C(F)(F)F)c2)ccc1-c1ncccc1Cl [Compound 258] | + + (“+ +” compound exhibited 25-50% inhibition of calcium ion influx induced by capsaicin stimulation.) | 
O=C(Nc1ccc2ccccc2c1)c1ccc(-c2ncccc2Cl)c(F)c1 [Compound 160] | + + + + (compound exhibited 75% or greater inhibition of calcium ion influx induced by capsaicin stimulation) | 
COc1cc(C(=O)Nc2ccc3ccccc3c2)ccc1-c1ncccc1Cl [Compound 236] | + + + + (“+ + + +” compound exhibited 75% or greater inhibition of calcium ion influx induced by capsaicin stimulation.) | 
O=C(Nc1ccc([N+](=O)[O-])cc1)c1ccc(-c2ncccc2Cl)cc1 [Compound 56] | + + + + (compound exhibited 75% or greater inhibition of calcium ion influx induced by capsaicin stimulation) | 
COc1cc(C(=O)Nc2cccc(OC(F)(F)F)c2)ccc1-c1ncccc1Cl [Compound 252] | + (“+” compound exhibited 0-25% inhibition of calcium ion influx induced by capsaicin stimulation.) | 

Compound | % Inhibition @ 1 uM | % Inhibition @ 1 uM (1 µM)
CCCc1ccccc1NC(=O)c1ccc(-c2ncccc2Cl)c(F)c1 [Compound 118] | + (compound exhibited 0-25% inhibition of calcium ion influx induced by capsaicin stimulation) | 
O=C(Nc1ccc(N2CCNCC2)cc1)c1ccc(-c2ncccc2Cl)cn1 [Compound 317] | + (“+” compound exhibited 0-25% inhibition of calcium ion influx induced by capsaicin stimulation.) | 
Cc1cc(C)nc(NC(=O)c2ccc(-c3ncccc3Cl)c(F)c2)c1 [Compound 139] | + (compound exhibited 0-25% inhibition of calcium ion influx induced by capsaicin stimulation) | 
O=C(Nc1ccc(C(F)(F)F)cn1)c1ccc(-c2ncccc2Cl)c(F)c1 [Compound 149] | + + (compound exhibited 25-50% inhibition of calcium ion influx induced by capsaicin stimulation) | 
O=C(Nc1ccc(F)c(F)c1)c1ccc(-c2ncccc2Cl)cn1 [Compound 346] | + + + + (“+ + + +” compound exhibited 75% or greater inhibition of calcium ion influx induced by capsaicin stimulation.) | 
O=C(Nc1ccncc1)c1ccc(-c2ncccc2Cl)cn1 [Compound 313] | + + + (“+ + +” compound exhibited 50-75% inhibition of calcium ion influx induced by capsaicin stimulation.) | 
COc1ccc(NC(=O)c2ccc(-c3ncccc3Cl)c(OC)c2)cc1OC [Compound 240] | + (“+” compound exhibited 0-25% inhibition of calcium ion influx induced by capsaicin stimulation.) | 
O=C(Nc1ccccc1)c1ccc(-c2ncccc2Cl)cc1 [Compound 3] | + (compound exhibited 0-25% inhibition of calcium ion influx induced by capsaicin stimulation) | 
COc1cc(C(=O)Nc2ccncc2)ccc1-c1ncccc1Cl [Compound 218] | + + + + (“+ + + +” compound exhibited 75% or greater inhibition of calcium ion influx induced by capsaicin stimulation.) | 
CC(C)(C)c1ccc(NC(=O)c2ccc(-c3ncccc3Cl)cc2F)cc1 [Compound 86] | + (compound exhibited 0-25% inhibition of calcium ion influx induced by capsaicin stimulation) | 
O=C(Nc1ccc2ccccc2c1)c1ccc(-c2ncccc2Cl)cc1F [Compound 109] | + + (compound exhibited 25-50% inhibition of calcium ion influx induced by capsaicin stimulation) | 
O=C(Nc1ccc(OC(F)(F)F)cc1)c1ccc(-c2ncccc2Cl)cn1 [Compound 343] | + (“+” compound exhibited 0-25% inhibition of calcium ion influx induced by capsaicin stimulation.) | 
O=C(Nc1cccc(Br)c1)c1ccc(-c2ncccc2Cl)cc1 [Compound 21] | + (compound exhibited 0-25% inhibition of calcium ion influx induced by capsaicin stimulation) | 
Cc1cc(NC(=O)c2ccc(-c3ncccc3Cl)cn2)nc(C)n1 [Compound 326] | + (“+” compound exhibited 0-25% inhibition of calcium ion influx induced by capsaicin stimulation.) | 
O=C(Nc1ccc(F)cc1)c1ccc(-c2ncccc2Cl)cn1 [Compound 291] | + (“+” compound exhibited 0-25% inhibition of calcium ion influx induced by capsaicin stimulation.) | 
CCN(CC)CCOC(=O)c1ccc(NC(=O)c2ccc(-c3ncccc3Cl)cc2)cc1 [Compound 265] | + (“+” compound exhibited 0-25% inhibition of calcium ion influx induced by capsaicin stimulation.) | 
COc1ccc(NC(=O)c2ccc(-c3ncccc3Cl)cc2)cc1 [Compound 5] | + + (compound exhibited 25-50% inhibition of calcium ion influx induced by capsaicin stimulation) | 
COc1ccc(NC(=O)c2ccc(-c3ncccc3Cl)c(F)c2)cc1O [Compound 170] | + + (compound exhibited 25-50% inhibition of calcium ion influx induced by capsaicin stimulation) | 
COc1cc(C(=O)Nc2ccc(C)cc2C)ccc1-c1ncccc1Cl [Compound 206] | + + + + (“+ + + +” compound exhibited 75% or greater inhibition of calcium ion influx induced by capsaicin stimulation.) | 
COc1cc(C(=O)Nc2cccc(Cl)c2Cl)ccc1-c1ncccc1Cl [Compound 199] | + + + + (“+ + + +” compound exhibited 75% or greater inhibition of calcium ion influx induced by capsaicin stimulation.) | 
COc1cc(C(=O)Nc2ccc(N3CCNCC3)c(Cl)c2)ccc1-c1ncccc1Cl [Compound 259] | + (“+” compound exhibited 0-25% inhibition of calcium ion influx induced by capsaicin stimulation.) | 
O=C(Nc1ccc(OC(F)(F)F)cc1)c1ccc(-c2ncccc2Cl)c(F)c1 [Compound 175] | + + (compound exhibited 25-50% inhibition of calcium ion influx induced by capsaicin stimulation) | 
COc1cc(C(=O)Nc2cc(OC)c(OC)c(OC)c2)ccc1-c1ncccc1Cl [Compound 246] | + + + + (“+ + + +” compound exhibited 75% or greater inhibition of calcium ion influx induced by capsaicin stimulation.) | 
COc1ccc(NC(=O)c2ccc(-c3ncccc3Cl)c(OC)c2)cn1 [Compound 230] | + + (“+ +” compound exhibited 25-50% inhibition of calcium ion influx induced by capsaicin stimulation.) | 
CN1CCCc2ccc(NC(=O)c3ccc(-c4ncccc4Cl)cc3)cc21 [Compound 287] | + (“+” compound exhibited 0-25% inhibition of calcium ion influx induced by capsaicin stimulation.) | 
